The source of these data is paper PMC12750222, “Cytosporone B Affects ATP Production of Trypanosoma cruzi: A Lethal Action Investigation” (ACS Omega, 2025).

Series [1] has as its system T. cruzi trypomastigotes (Y strain). Briefly: Antitrypomastigote assay (resazurin). The format is cell-based, Trypanosoma cruzi. As to conditions: 24 h + 24 h resazurin, tested up to 150 μM, NA = no activity, read-out: IC50 (μM) ± SD Trypomastigote. The protocol: (§1) Murine conjunctive cells (NCTC clone 929, ATCC) and rhesus monkey kidney cells (LLC-MK2, ATCC CCL 7) were maintained in RPMI-1640 supplemented with 10% fetal bovine serum (FBS) at 37 °C in 5% CO2 humidified incubator. Peritoneal macrophages were collected by washing the peritoneal cavity of BALB/c mice with RPMI-1640 medium (Sigma-Aldrich) supplemented with 10% FBS, and were maintained at 37 °C in a 5% CO2 humidified incubator. T. cruzi trypomastigotes (Y strain) were cultivated by continuous in vitro passage in LLC-MK2, in RPMI-1640 supplemented with 2% FBS at 37 °C in 5% CO2 humidified incubator. Antitrypomastigote activity was evaluated in vitro using trypomastigotes obtained from infected LLC-MK2 cell cultures. The motile trypomastigotes, spontaneously released into the supernatant, were collected by centrifugation (2100g for 10 min), washed three times with cold PBS to remove cell debris and culture medium, and finally resuspended in fresh RPMI-1640 medium.
Antitrypomastigote activity was evaluated in vitro using trypomastigotes obtained from infected LLC-MK2 cell cultures. Briefly, […] (1 × 10^6 cells/well) were incubated with increasing concentrations of the test compounds (up to 150 μM) in RPMI-1640 medium supplemented with 10% fetal bovine serum, at 37 °C in a humidified atmosphere containing 5% CO2 for 24 h. After incubation, resazurin sodium salt (final concentration 44 μM) was added to each well, and the plates were further incubated for an additional 24 h under the same conditions. Resazurin is a redox-sensitive dye that is reduced by metabolically active parasites to the fluorescent compound resorufin, allowing the quantification of viable parasites.
The conversion of resazurin to resorufin was measured spectrophotometrically by reading the absorbance at 570 nm. The percentage of parasite viability was calculated relative to untreated controls. Benznidazole was used as a standard drug, and wells containing only medium served as negative controls.
A general note: The colour change of resazurin is a common sign of viable cells or microbes.

The subject of series [2] is T. cruzi intracellular amastigotes. The series is described as follows: Antiamastigote assay in infected peritoneal macrophages (Giemsa, infection index). The series is classed as cell-based, Trypanosoma cruzi. As to conditions: for IC50: 48 h, intracellular amastigotes in BALB/c peritoneal macrophages, tested up to 60 μM, NA = no activity, read-out: IC50 (μM) ± SD Amastigote; for SI (selectivity index): ratio between CC50 in NCTC cells and IC50 in intracellular amastigotes. The procedure:
as §1
Macrophages were seeded in 16-well chamber slides (NUNC Thermo Fisher Scientific, USA) and after 24 h infected with trypomastigotes (1:5, host cell/parasite ratio) for 2 h. Subsequently, infected cells were incubated with increasing concentrations of the compounds (up to 60 μM) for 48 h at 37 °C in 5% CO2 humidified incubator. After treatment, the cells were fixed and stained with Giemsa, and the slides were analyzed under a digital light microscope (EVOS M500, Thermo Fisher Scientific, USA). The infection index was determined by counting 200 macrophages and calculating the percentage of infected cells multiplied by the average number of amastigotes per infected macrophage. Benznidazole was used as a standard reference drug.

Another series in a line: Cytotoxic assay (MTT). The format is cell-based, Murine. As to conditions: mouse, NCTC clone 929 fibroblast cells, NCTC clone 929 cells, highest tested concentration 200 μM. The procedure: as §1
(§2) Cytotoxicity was evaluated in vitro using fibroblast cells (NCTC clone 929) seeded in a 96-well plate (6 × 10^4/well). The compounds were diluted in DMSO (30 mM) and diluted in RPMI-1640 medium without phenol red compounds using serial dilution from 1.56 to–200 μM. The compounds were incubated with the cells for 48 h at 37 °C in 5% CO2 humidified incubator. The MTT assay was used for viability determination. After the final incubation period, 20 μL of MTT (5 mg/mL) was added for 4 h and the plate was kept at 37 °C in 5% CO2 humidified incubator. To solubilize the formazan, 80 μL of SDS (10% v/v) was added and the microplate was incubated for 24 h at 25 °C. The microplate was read at 570 nm in a plate spectrophotometer (Varioskan, Thermo, USA).

In the next series the test system is T. cruzi. Details: method as in literature. As to conditions: T. cruzi treated with benznidazole; ref literature; cited from earlier work.
Series [3] deals with fibroblast cells (NCTC clone 929). The series is described as follows: Cytotoxic assay (MTT). The series is classed as cell-based, Murine. As to conditions: NCTC clone 929 cells, 48 h, highest tested concentration 200 μM. The procedure: as §1, §2
For another series, the system named is plants. Details: method as in literature. The settings on record: ref literature; cited from earlier work.
In the next series the test system is Staphylococcus aureus. Details: method as in literature. The settings on record: ref literature; cited from earlier work.
The test system of a further series is Enterococcus faecalis. Details: method as in literature. The settings on record: ref literature; cited from earlier work.
The subject of a further series is Escherichia coli. Details: method as in literature. As to conditions: ref literature; cited from earlier work.
The subject of a further series is Candida albicans. Details: method as in literature. The settings on record: ref literature; cited from earlier work.
In series [4] the test system is T. cruzi trypomastigotes. The series is described as follows: Mitochondrial membrane electric potential (JC-1, flow cytometry). As to conditions: 55 μM, 1 and 2 h, JC-1, ratio BL2/BL1. The series is classed as cell-based, Trypanosoma cruzi. The protocol: Mitochondrial membrane potential (ΔΨm) was evaluated using the JC-1 fluorescent probe, which accumulates in mitochondria in a potential-dependent manner, forming red-fluorescent aggregates in healthy cells with high ΔΨm and remaining as green-fluorescent monomers in cells with depolarized mitochondrial membranes. Trypomastigotes (2 × 10^6/well) were incubated with Csn-B (6) (55 μM) for 1 and 2 h, at 37 °C in HBSS + Glu. Carbonyl cyanide m-chlorophenyl hydrazone (CCCP) 100 μM was used as a positive control. After this period, parasites were washed in HBSS + Glu and resuspended with JC-1 dye (10 μM) in the dark for 10 min at 37 °C. Parasites were analyzed by flow cytometry (Attune NxT Flow Cytometer; Thermo Fisher Scientific, USA). ,
(§3) 3 Evaluation of mitochondrial membrane electric potential (ΔΨm) and ATP levels. T. cruzi trypomastigotes were incubated for 1 or 2 h with Cytosporone B (6) (55 μM). (A) ΔΨm was investigated with JC-1 dye by flow cytometry and reported as the ratio between the emission channels BL2/BL1. (B) ATP concentration was measured by luciferin/luciferase luminescent kit in a plate reader luminometer. In both analyses, untreated and treated […] with CCCP were used to achieve minimal and maximal depolarization, respectively. A representative experiment is shown. ***p < 0.005 and **p < 0.05.
Background: In flow cytometry, cells or beads pass a laser one at a time.

Series [5] concerns T. cruzi trypomastigotes. Briefly: ATP levels (luciferin/luciferase). As to conditions: 55 μM, 1 and 2 h. The format is cell-based, Trypanosoma cruzi. The protocol: Intracellular ATP levels were measured using the ATP Determination Kit (Molecular Probes, Thermo Fisher Scientific, USA), based on the luciferin–luciferase bioluminescence reaction, in which the emitted light intensity is directly proportional to the ATP concentration present in the sample. Trypomastigotes (2 × 10^6/well) were treated with Csn-B (6) (55 μM) for 1 and 2 h. Carbonyl cyanide m-chlorophenyl hydrazone (CCCP) 100 μM was used as a positive control. After treatment, trypomastigotes were lysed using HBSS + Glu with 0.5% Triton X-100 and mixed with a standard reaction buffer (ATP Determination kit, Molecular Probes, USA) containing DTT (1 mM), luciferin (0.5 mM), and firefly luciferase (1.25 μg/mL). ,
as §3

The subject of another series is bacteria. Details: method as in literature. The settings on record: ref literature; cited from earlier work.
Another series relates to Nur77. Details: method as in PMID 18690216. As to conditions: cited from earlier work.
For series [6], the system named is human lung fibroblast MRC-5 cells. Details: method as in PMID 29660469. The settings on record: cited from earlier work.
Setting [7] is: Trypanosoma cruzi, Peritoneal macrophage, in Mus musculus.

Entries after “also recorded” stand apart in the source; their conditions may differ. Like-named read-outs stand apart in the source and are kept apart here.

Take `O=C(Cn1ccnc1[N+](=O)[O-])NCc1ccccc1` [Benznidazole, reference compound]: the values for the IC50 in series [1] (Trypanosoma cruzi) and in series [2] (setting [7]) were 17.7 ± 1.9 µM and 5 ± 1.5 µM, respectively. The “SI (selectivity index)” value in [2] turned out to be 38.1. The molecule further returned a CC50 at 48 h in the series “Cytotoxic assay (MTT)” of 191 ± 13.4 µM. The mitochondrial membrane potential entry with T. cruzi is “depolarization”. Besides, in the series on T. cruzi, the respiratory chain entry was “respiratory chain inhibition”.
`COC(=O)Cc1cc(O)cc(O)c1C(=O)CCCCCC(C)=O` [Compound 3, Dothiorelone P]: the CC50 in [3] is above 200 µM.
As for `CCCCCCCC(=O)c1c(O)cc(O)cc1CC(=O)O` [Compound 5, Cytosporone A], the half-inhibitory concentration (IC50) in series [2] amounted to 29.9 ± 0.5 µM. Further, the CC50 in [3] was above 200 µM. Also, the “inhibition for germination and growth of plants” value with plants was “inhibition”. Also, the antimicrobial activity result in the series on Staphylococcus aureus, in the series on Enterococcus faecalis, with Escherichia coli and with Candida albicans was “antimicrobial activity” throughout.
For `CCCCCCCC(=O)c1c(O)cc(O)cc1CC(=O)OCC` [Compound 6, Cytosporone B], the IC50 was 36.5 ± 1.9 µM in series [1] (Trypanosoma cruzi), below 10 µM in series [2] (setting [7]) and 9.1 ± 3.2 µM in series [2]. In addition, in series [2], the “SI (selectivity index)” value is above 22.0. Besides, the CC50 at 48 h in “Cytotoxic assay (MTT)” was above 200 µM. For the same molecule, the “mitochondrial membrane electric potential (ΔΨm)” value with T. cruzi trypomastigotes [4] is “depolarization of the membrane”; in the series on T. cruzi trypomastigotes [4] (listed as Csn-B), “depolarization of the mitochondrial membrane potential; also recorded: significant depolarization”. Moreover, the results for the ATP levels entry in the series with T. cruzi trypomastigotes [5] and in the series on T. cruzi trypomastigotes [5] (listed as Csn-B) were “ATP decrease” and “decrease in the ATP levels; also recorded: significant decrease in ATP levels; also recorded: significant reduction in intracellular ATP levels”, respectively. The antibacterial activity result in the series with bacteria is given as “potent antibacterial activity”. The antimicrobial activity entry in the series on Staphylococcus aureus, in the series with Enterococcus faecalis, in the series with Escherichia coli and in the series on Candida albicans was “antimicrobial activity” in each case. The “action on Nur77 nuclear receptor” value in the series with Nur77 is reported as “agonist”.
Take `C=C1[C@@H](C)[C@H]2[C@H](Cc3ccccc3)NC(=O)[C@]23[C@H](OC(C)=O)/C=C/[C@](C)(O)C[C@@H](C)C/C=C/[C@H]3[C@@H]1O` [Compound 7, Cytochalasin H]: the IC50 in [1] was 47.9 ± 6.3 µM. The molecule also showed a CC50 in series [3] above 200 µM.
Take Dothiorelone A [Compound 1]: the 50% cytotoxic concentration (CC50) in [3] is above 200 µM.
Dothiorelone B [Compound 2] came in with a CC50 in series [3] above 200 µM.
In the case of Dothiorelone Q [Compound 4], the IC50 in [2] came to 43 ± 9 µM. In series [3], this molecule showed a cytotoxic concentration (CC50) above 200 µM. The “inhibition of TFG-β induced activation of MRC-5 cells” value in series [6] was “inhibition”.

Usually IC50 stands for the concentration needed to halve the response being measured. The term CC50 denotes the concentration that lowers cell viability or growth by half.
